Measurements published in patent US11214803B2, “Modulators of YAP1 expression” (Ionis Pharmaceuticals, Inc., priority 2019, dated 2022).
Strand notation (5' to 3'): a small letter for the sugar, then the base; units joined by * are phosphorothioate-linked, units joined directly phosphodiester-linked; [ ] holds rarer units or linkages, { } end groups; capitals alone tell only the bases. e = 2'-O-(2-methoxyethyl) (MOE); k = constrained ethyl (cEt); [5mC] = 5-methylcytosine; d = 2'-deoxy (DNA); m = 2'-O-methyl

System: Yap1 mRNA
Experiment: Antisense inhibition of human Yap1 in SNU-449 cells by modified oligonucleotides, single dose (Example 5, RTS36584)
Assay type: cell-based
Settings: Table 39; SNU-449 cells, 10,000 cells per well, free uptake, 2,000 nM oligonucleotide, approx. 48 hours; RTS36584; normalized to RIBOGREEN; Yap1 mRNA relative to untreated control
Summary of the method: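 Free uptake, 2,000 nM, ~48 h, SNU-449 at 10,000 cells/well. Read-out: qRT-PCR (RTS36584), RIBOGREEN-normalised, expressed as % UTC. Asterisk = oligo hits amplicon region.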

| Substance | YAP1 (% UTC) |
| --- | --- |
| 1095399 (antisense k[5mC]*dA*d[5mC]*dT*dG*dA*dG*dG*dT*dA*dT*kA*eA*k[5mC]*eT*kG) [Compound 1095399] | 46 |
| 1198410 (kA*dT*dA*dG*dT*dG*d[5mC]*dT*dT*dT*dG*kG*eA*kA*eG*kA; antisense) [Compound 1198410] | 48 |

Same assay, conditions: Table 40 (separate experiment); SNU-449 cells, 10,000 cells per well, free uptake, 2,000 nM oligonucleotide, approx. 48 hours; RTS36584; normalized to RIBOGREEN; Yap1 mRNA relative to untreated control

| Substance | YAP1 (% UTC) |
| --- | --- |
| 1198780 (antisense kT*eA*kA*dT*dA*dT*dT*dG*d[5mC]*dA*dA*dT*e[5mC]*eT*kG*kT) [Compound 1198780] | 80 |
| 1198445 (k[5mC]*dT*dT*dT*dA*dA*dA*dG*dT*dG*dT*kA*eT*kG*eT*k[5mC]; antisense) [Compound 1198445] | 61 |
| 1198438 (kT*dG*dT*dA*dT*dG*dT*d[5mC]*dA*dG*dA*kA*eG*kA*eG*kT; antisense) [Compound 1198438] | 7 |
| 1198441 (kA*dA*dA*dG*dT*dG*dT*dA*dT*dG*dT*k[5mC]*eA*kG*eA*kA; antisense) [Compound 1198441] | 19 |
| 1198724 (kA*eG*kA*dG*dT*dA*dT*dG*dT*dG*dG*d[5mC]*eA*eA*kT*kA; antisense) [Compound 1198724] | 16 |
| 1198750 (kG*eG*kA*dA*dG*dA*dT*d[5mC]*dT*dG*dA*dA*eA*e[5mC]*kT*k[5mC]; antisense) [Compound 1198750] | 32 |

Same assay, conditions: Table 41; SNU-449 cells, 10,000 cells per well, free uptake, 2,000 nM modified oligonucleotide, approximately 48 hours; RTS36584; normalized to RIBOGREEN; Yap1 mRNA relative to untreated control cells

| Substance | YAP1 (% UTC) |
| --- | --- |
| 1198658 (kA*kA*dG*d[5mC]*dA*d[5mC]*dT*dT*dT*dT*dA*d[5mC]*kA*eT*kT*eA; antisense) [Compound 1198658] | 62 |
| 1198690 (antisense kT*kA*dA*dT*dA*dT*dT*dG*d[5mC]*dA*dA*dT*k[5mC]*eT*kG*eT) [Compound 1198690] | 64 |

Same assay, conditions: Table 42 (separate experiment); SNU-449 cells, 10,000 cells per well, free uptake, 2,000 nM modified oligonucleotide, approximately 48 hours; RTS36584; normalized to RIBOGREEN; Yap1 mRNA relative to untreated control cells

| Substance | YAP1 (% UTC) |
| --- | --- |
| 1198200 (kA*kA*dT*dT*dG*dT*d[5mC]*dT*d[5mC]*dA*dT*eG*e[5mC]*e[5mC]*kT*kT; antisense) [Compound 1198200] | 49 |
| 1198685 (antisense k[5mC]*kA*dA*d[5mC]*dT*d[5mC]*dT*dT*dA*dT*dA*dT*kG*eG*kT*eT) [Compound 1198685] | 70 |
| 1198693 (antisense kA*kT*dG*dT*dA*dA*dT*dA*dT*dT*dG*d[5mC]*kA*eA*kT*e[5mC]) [Compound 1198693] | 92 |
| 1198233 (k[5mC]*kT*dT*dT*dG*dG*dA*dA*dG*dA*dT*e[5mC]*eT*eG*kA*kA) [Compound 1198233] | 49 |

Same assay, conditions: Table 43 experiment; SNU-449 cells, 10,000 cells per well, free uptake, 2,000 nM, approximately 48 hours; RTS36584; Yap1 mRNA normalized to RIBOGREEN, relative to untreated control cells

| Substance | YAP1 (% UTC) |
| --- | --- |
| 1198250 (k[5mC]*kT*dT*dA*dT*dA*dT*dG*dG*dT*dT*eT*eT*eG*kT*kG; antisense) [Compound 1198250] | 50 |
| 1198274 (kA*kA*d[5mC]*dT*dT*dT*dA*dA*dA*dG*dT*eG*eT*eA*kT*kG; antisense) [Compound 1198274] | 69 |
| 1198480 (antisense kT*kT*dT*dT*dA*d[5mC]*dA*dT*dT*dA*dG*eG*kA*eA*k[5mC]*eA) [Compound 1198480] | 75 |

Same assay, conditions: Table 44 experiment; SNU-449 cells, 10,000 cells per well, free uptake, 2,000 nM, approximately 48 hours; RTS36584; Yap1 mRNA normalized to RIBOGREEN, relative to untreated control cells

| Substance | YAP1 (% UTC) |
| --- | --- |
| 1198907 (kT*k[5mC]*dT*dA*dT*dA*dT*dT*dA*dG*dA*kG*dT*kA*dT*kG; antisense) [Compound 1198907] | 74 |
| 1198517 (kA*kA*dT*dA*dT*dT*dG*d[5mC]*dA*dA*dT*e[5mC]*kT*eG*kT*e[5mC]; antisense) [Compound 1198517] | 36 |
| 1198525 (kA*kG*dT*dG*dT*dA*dT*dG*dT*d[5mC]*dA*eG*kA*eA*kG*eA; antisense) [Compound 1198525] | 2 |
| 1198899 (kA*kG*dT*dA*dT*dG*dT*dG*dG*d[5mC]*dA*kA*dT*kA*dA*kT) [Compound 1198899] | 75 |
| 1095623 (antisense k[5mC]*kA*d[5mC]*dT*dG*dA*dG*dG*dT*dA*dT*eA*kA*e[5mC]*kT*eG) [Compound 1095623] | 57 |
| 1198900 (kA*kG*dA*dG*dT*dA*dT*dG*dT*dG*dG*k[5mC]*dA*kA*dT*kA; antisense) [Compound 1198900] | 11 |
| 1198503 (k[5mC]*kA*dG*dA*dT*dT*dT*dA*dG*dG*dA*eT*kG*e[5mC]*kA*eT; antisense) [Compound 1198503] | 31 |
| 1198516 (kA*kT*dA*dT*dT*dG*d[5mC]*dA*dA*dT*d[5mC]*eT*kG*eT*k[5mC]*eT; antisense) [Compound 1198516] | 50 |

Same assay, conditions: Table 45; Yap1 mRNA as percent of untreated control, SNU-449 cells, single dose

| Substance | YAP1 (% UTC) |
| --- | --- |
| 1198946 (kA*kA*d[5mC]*dT*d[5mC]*dT*dT*dA*dT*dA*dT*kG*dG*kT*dT*kT; antisense) [Compound 1198946] | 72 |
| 1198930 (kA*kT*dA*dG*dT*dG*d[5mC]*dT*dT*dT*dG*kG*dA*kA*dG*kA; antisense) [Compound 1198930] | 68 |

Same assay, conditions: Table 46; Yap1 mRNA as percent of untreated control, SNU-449 cells, single dose

| Substance | YAP1 (% UT) |
| --- | --- |
| 1198820 (kT*kA*dT*dA*dT*dT*dA*dG*dA*dG*dT*kA*eT*kG*eT*kG; antisense) [Compound 1198820] | 62 |

Same assay, conditions: Table 48; Yap1 mRNA level relative to untreated control; modified oligonucleotides targeting SEQ ID NO.: 1 and 2

| Substance | YAP1 (% UT) |
| --- | --- |
| 1198327 (kT*kT*kT*dA*dG*dG*dA*dT*dG*d[5mC]*dA*dT*kG*eG*kT*eT; antisense) [Compound 1198327] | 29 |
| 1198312 (kG*k[5mC]*kA*d[5mC]*dT*dT*dT*dT*dA*d[5mC]*dA*dT*kT*eA*kG*eG; antisense) [Compound 1198312] | 7 |
| 1198293 (kA*kG*kT*dA*dT*dG*dT*dG*dG*d[5mC]*dA*dA*kT*eA*kA*eT; antisense) [Compound 1198293] | 25 |
| 1198324 (kA*kT*kA*dG*dT*dG*d[5mC]*dT*dT*dT*dG*dG*kA*eA*kG*eA; antisense) [Compound 1198324] | 53 |

Same assay, conditions: Table 49; Yap1 mRNA level relative to untreated control; modified oligonucleotides targeting SEQ ID NO.: 1 and 2

| Substance | YAP1 (% UT) |
| --- | --- |
| 1198362 (kA*kG*kT*dA*dA*dG*dG*dT*dT*dT*d[5mC]*d[5mC]*k[5mC]*eA*kG*eA; antisense) [Compound 1198362] | 24 |
| 1198557 (antisense kA*kT*kA*dT*dT*dA*dG*dA*dG*dT*dA*dT*kG*kT*kG*eG) [Compound 1198557] | 16 |

Same assay, conditions: Table 50; Yap1 mRNA remaining as percent of untreated control (UT), SNU-449 cells, single dose

| Substance | YAP1 (% UT) |
| --- | --- |
| 1095454 (antisense k[5mC]*kT*kG*dA*dG*dG*dT*dA*dT*dA*dA*d[5mC]*kT*kG*kG*eG) [Compound 1095454] | 47 % UT |
| 1197288 (kT*k[5mC]*kT*dA*mU*dA*dT*dT*dA*dG*dA*dG*dT*kA*kT*kG; antisense) [Compound 1197288] | 94 % UT |
| 1198609 (antisense kT*kT*kT*dA*dT*dG*dT*dA*dA*dT*dA*dT*kT*kG*k[5mC]*eA) [Compound 1198609] | 52 % UT |
| 1198610 (antisense kT*kG*kT*dA*dT*dG*dT*d[5mC]*dA*dG*dA*dA*kG*kA*kG*eT) [Compound 1198610] | TksGksTksAdsTdsGdsTds^mCdsAdsGds4 % UT |

Same assay, conditions: Table 52; Yap1 mRNA, modified oligonucleotides targeting SEQ ID NO: 1 and 2

| Substance | YAP1 (% UT) |
| --- | --- |
| 1200861 (kT*kT*kA*dA*dA*mG*dT*dG*dT*dA*dT*dG*dT*k[5mC]*kA*kG; antisense) [Compound 1200861] | 10 |
| 1200818 (kA*kA*kG*d[5mC]*dA*mC*dT*dT*dT*dT*dA*d[5mC]*dA*kT*kT*kA; antisense) [Compound 1200818] | 31 |
| 1200866 (kA*kG*kT*dA*dA*mG*dG*dT*dT*dT*d[5mC]*d[5mC]*d[5mC]*kA*kG*kA; antisense) [Compound 1200866] | 41 |
| 1200831 (kT*kT*kT*dA*dG*mG*dA*dT*dG*d[5mC]*dA*dT*dG*kG*kT*kT; antisense) [Compound 1200831] | 42 |
| 1200860 (kT*kA*kA*dA*dG*mU*dG*dT*dA*dT*dG*dT*d[5mC]*kA*kG*kA; antisense) [Compound 1200860] | 16 |
| 1200840 (k[5mC]*kT*kT*dA*dT*mA*dT*dG*dG*dT*dT*dT*dT*kG*kT*kG; antisense) [Compound 1200840] | 48 |

Same assay, conditions: Yap1 mRNA, percent of untreated control; modified oligonucleotides targeting SEQ ID NO: 1 and 2; Table 47

| Substance | YAP1 (% UT) |
| --- | --- |
| 1197223 (antisense kT*kA*kA*dG*dT*dA*dA*dG*dG*dT*dT*dT*d[5mC]*k[5mC]*k[5mC]*kA) [Compound 1197223] | 11 |
| 1197193 (antisense AGGATGCATGGTTTTT; chemistry not fully specified) [Compound 1197193] | 15 |
| 1198862 (kG*kA*d[5mC]*dA*dA*d[5mC]*dT*d[5mC]*dT*dT*dA*kT*eA*kT*eG*kG; antisense) [Compound 1198862] | 72 |
| 1197195 (antisense kT*kT*kT*dA*dG*dG*dA*dT*dG*d[5mC]*dA*dT*dG*kG*kT*kT) [Compound 1197195] | 38 |
| 1197194 (antisense kT*kT*kA*dG*dG*dA*dT*dG*d[5mC]*dA*dT*dG*dG*kT*kT*kT) [Compound 1197194] | 37 |
